Measured values: US10294202B2, “Pyrrolidinones as herbicides” (FMC Corporation, priority 2013, dated 2019)

Assays:
Assay in all cases: Test C pre-/postemergence herbicide test
[1] = test system: surinam grass; format: in vivo, Brachiaria decumbens
Procedure, shortened: (§1)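 Herbicidal effect was judged by eye 13 to 15 days after treatment in the greenhouse, using a 0–100 scale against controls. Chemicals in a non-phytotoxic solvent with surfactant were sprayed onto planted loam/sand soil or onto plants 2 to 18 cm tall in a peat-based growing medium.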

[2] = test system: Russian thistle; format: in vivo, Salsola kali; settings: Preemergence
Procedure, shortened: as §1

[3] = test system: goosegrass; format: in vivo, Eleusine indica
Procedure, shortened: as §1

[4] = test system: foxtail, green; format: in vivo, Setaria viridis
Procedure, shortened: as §1

[5] = test system: cocklebur; format: in vivo, Xanthium strumarium
Procedure, shortened: as §1

[6] = test system: nightshade; format: in vivo, Solanum ptycanthum; settings: Preemergence
Procedure, shortened: as §1

[7] = test system: cupgrass, woolly; format: in vivo, Eriochloa villosa
Procedure, shortened: as §1

[8] = test system: sunflower; format: in vivo, Helianthus annuus; settings: Preemergence
Procedure, shortened: as §1

[9] = test system: bermudagrass; format: in vivo, Cynodon dactylon
Procedure, shortened: as §1

[10] = test system: bromegrass, downy; format: in vivo, Bromus tectorum
Procedure, shortened: as §1

[11] = Postemergence, 31 g ai/ha, scale 0 (no effect) to 100 (complete control)
[12] = Postemergence, 62 g ai/ha, scale 0 to 100 (0 no effect, 100 complete control)
[13] = Postemergence, 125 g ai/ha, scale 0 to 100 (0 no effect, 100 complete control)
[14] = Postemergence, 250 g ai/ha, scale 0 to 100 (0 no effect, 100 complete control)
[15] = Preemergence, 31 g ai/ha, scale 0 to 100, 0 is no effect and 100 is complete control
[16] = Preemergence, 62 g ai/ha, scale 0 to 100
[17] = Preemergence, 125 g ai/ha, scale 0 to 100 (0 no effect, 100 complete control)
[18] = 31 g ai/ha, scale 0 to 100, 0 is no effect and 100 is complete control
[19] = 125 g ai/ha, scale 0 to 100 (0 no effect, 100 complete control)
[20] = Preemergence, 31 g ai/ha, scale 0 to 100 (0 no effect, 100 complete control)
[21] = Preemergence, 250 g ai/ha, scale 0 to 100 (0 no effect, 100 complete control)

With `O=C1NCC(c2ccccc2)C1C(=O)Nc1ccccc1F` (racemic) [Compound 81] the “Plant response rating, Surinam Grass” value [1, 11] was 0, the “Plant response rating, Surinam Grass” value [1, 12] was 0 and the “Plant response rating, Surinam Grass” value [1, 13] was 0. The “Plant response rating, Surinam Grass” value [1, 14] was 0, the “Surinam Grass plant response rating” value [1, 15] was 0 and the “Plant response rating, Surinam Grass” value [1, 16] was 53. The “Plant response rating, Surinam Grass” value [1, 17] was 77, the “Plant response rating (scale of 0 to 100), Surinam Grass” value ([1]; Preemergence, 250 g ai/ha) was 90 and the “Russian Thistle plant response rating” value [2, 18] was 0. For the same molecule, the “Plant response rating, Russian Thistle” value ([2]; 62 g ai/ha, scale 0 to 100) was 0, the “Plant response rating, Russian Thistle” value [2, 19] was 0 and the “Plant response rating (scale of 0 to 100), Russian Thistle” value ([2]; 250 g ai/ha) was 0. For the same molecule, the “Plant response rating, Goosegrass” value [3, 11] was 0, the “Plant response rating, Goosegrass” value [3, 12] was 0 and the “Plant response rating, Goosegrass” value [3, 13] was 0. For the same molecule, the “Plant response rating, Goosegrass” value [3, 14] was 0, the “Goosegrass plant response rating” value [3, 15] was 0 and the “Plant response rating, Goosegrass” value [3, 16] was 0. For the same molecule, the “Plant response rating, Goosegrass” value [3, 17] was 0, the “Plant response rating (scale of 0 to 100), Goosegrass” value ([3]; Preemergence, 250 g ai/ha) was 0 and the “Plant response rating, Foxtail, Green” value [4, 11] was 5. For the same molecule, the “Plant response rating, Foxtail, Green” value [4, 12] was 5, the “Plant response rating, Foxtail, Green” value [4, 13] was 20 and the “Plant response rating, Foxtail, Green” value [4, 14] was 48. The “Foxtail, Green plant response rating” value [4, 15] was 20, the “Plant response rating, Foxtail, Green” value [4, 16] was 67 and the “Plant response rating, Foxtail, Green” value [4, 17] was 80. For the same molecule, the “Plant response rating (scale of 0 to 100), Foxtail, Green” value ([4]; Preemergence, 250 g ai/ha) was 90, the “Plant response rating, Cocklebur” value [5, 11] was 0 and the “Plant response rating, Cocklebur” value [5, 12] was 0. The “Plant response rating, Cocklebur” value [5, 13] was 0, the “Plant response rating, Cocklebur” value [5, 14] was 0 and the “Cocklebur plant response rating” value [5, 15] was 0. For the same molecule, the “Plant response rating, Cocklebur” value [5, 16] was 0, the “Plant response rating, Cocklebur” value [5, 17] was 0 and the “Plant response rating (scale of 0 to 100), Cocklebur” value ([5]; Preemergence, 250 g ai/ha) was 0. For the same molecule, the “Nightshade plant response rating” value [6, 18] was 0, the “Plant response rating, Nightshade” value ([6]; 62 g ai/ha, scale 0 to 100) was 0 and the “Plant response rating, Nightshade” value [6, 19] was 0. The “Plant response rating (scale of 0 to 100), Nightshade” value ([6]; 250 g ai/ha) was 0, the “Plant response rating, Cupgrass, Woolly” value [7, 11] was 0 and the “Plant response rating, Cupgrass, Woolly” value [7, 12] was 0. For the same molecule, the “Plant response rating, Cupgrass, Woolly” value [7, 13] was 0, the “Plant response rating, Cupgrass, Woolly” value [7, 14] was 0 and the “Cupgrass, Woolly plant response rating” value [7, 15] was 0. The “Plant response rating, Cupgrass, Woolly” value [7, 16] was 32, the “Plant response rating, Cupgrass, Woolly” value [7, 17] was 67 and the “Plant response rating (scale of 0 to 100), Cupgrass, Woolly” value ([7]; Preemergence, 250 g ai/ha) was 82. For the same molecule, the “Sunflower plant response rating” value [8, 18] was 0, the “Plant response rating Sunflower” value ([8]; 62 g ai/ha, scale 0 to 100) was 0 and the “Plant response rating Sunflower” value [8, 19] was 0. The “Plant response rating (scale of 0 to 100), Sunflower” value ([8]; 250 g ai/ha) was 0, the “Plant response rating, Bermudagrass” value [9, 11] was 0 and the “Plant response rating, Bermudagrass” value [9, 12] was 0. The “Plant response rating, Bermudagrass” value [9, 13] was 0, the “Plant response rating, Bermudagrass” value [9, 14] was 0 and the “Bermudagrass plant response rating” value [9, 15] was 0. The “Plant response rating, Bermudagrass” value [9, 16] was 0, the “Plant response rating, Bermudagrass” value [9, 17] was 0 and the “Plant response rating (scale of 0 to 100), Bermudagrass” value ([9]; Preemergence, 250 g ai/ha) was 0. The “Plant response rating, Bromegrass, Downy” value [10, 11] was 0, the “Plant response rating, Bromegrass, Downy” value [10, 12] was 0 and the “Plant response rating, Bromegrass, Downy” value [10, 13] was 0. The “Plant response rating, Bromegrass, Downy” value [10, 14] was 7, the “Bromegrass, Downy plant response rating” value [10, 15] was 0 and the “Plant response rating, Bromegrass, Downy” value [10, 16] was 0. The “Plant response rating, Bromegrass, Downy” value [10, 17] was 0 and the “Plant response rating (scale of 0 to 100), Bromegrass, Downy” value ([10]; Preemergence, 250 g ai/ha) was 0.
In the case of `O=C1NCC(c2ccc(F)c(Cl)c2)C1C(=O)Nc1cccc(F)c1F` (centres unmarked) [Compound 59], the “Plant response rating, Surinam Grass” value [1, 16] is reported as 35, the “Plant response rating, Surinam Grass” value [1, 17] is reported as 60 and the “Plant response rating, Russian Thistle” value ([2]; 62 g ai/ha, scale 0 to 100) is reported as 0. For the same molecule, the “Plant response rating, Russian Thistle” value [2, 19] was 0, the “Goosegrass plant response rating” value [3, 20] was 15 and the “Plant response rating, Goosegrass” value [3, 16] was 25. The “Plant response rating, Goosegrass” value [3, 17] was 35, the “Foxtail, Green plant response rating” value [4, 20] was 85 and the “Plant response rating, Foxtail, Green” value [4, 16] was 90. The “Plant response rating, Foxtail, Green” value [4, 17] was 90, the “Plant response rating, Foxtail, Green” value [4, 21] was 98 and the “Plant response rating, Cocklebur” value [5, 16] was 0. For the same molecule, the “Plant response rating, Nightshade” value [6, 19] was 25, the “Cupgrass, Woolly plant response rating” value [7, 20] was 40 and the “Plant response rating, Cupgrass, Woolly” value [7, 16] was 70. For the same molecule, the “Plant response rating, Cupgrass, Woolly” value [7, 17] was 80, the “Plant response rating, Cupgrass, Woolly” value [7, 21] was 80 and the “Plant response rating Sunflower” value ([8]; 62 g ai/ha, scale 0 to 100) was 5. The “Plant response rating Sunflower” value [8, 19] was 15, the “Bermudagrass plant response rating” value [9, 20] was 20 and the “Plant response rating, Bermudagrass” value [9, 16] was 20. The “Plant response rating, Bermudagrass” value [9, 17] was 40, the “Plant response rating, Bermudagrass” value [9, 21] was 50 and the “Bromegrass, Downy plant response rating” value [10, 20] was 0. The “Plant response rating, Bromegrass, Downy” value [10, 16] was 0, the “Plant response rating, Bromegrass, Downy” value [10, 17] was 0 and the “Plant response rating, Bromegrass, Downy” value [10, 21] was 20.
For `O=C1NCC(c2ccc3c(c2)OC(F)(F)O3)C1C(=O)Nc1cccc(F)c1F` (centres unmarked) [Compound 62], the “Plant response rating, Surinam Grass” value [1, 16] was 60, the “Plant response rating, Surinam Grass” value [1, 17] was 80 and the “Plant response rating, Russian Thistle” value ([2]; 62 g ai/ha, scale 0 to 100) was 30. For the same molecule, the “Plant response rating, Russian Thistle” value [2, 19] was 85, the “Goosegrass plant response rating” value [3, 20] was 10 and the “Plant response rating, Goosegrass” value [3, 16] was 25. For the same molecule, the “Plant response rating, Goosegrass” value [3, 17] was 70, the “Foxtail, Green plant response rating” value [4, 20] was 75 and the “Plant response rating, Foxtail, Green” value [4, 16] was 90. The “Plant response rating, Foxtail, Green” value [4, 17] was 90, the “Plant response rating, Foxtail, Green” value [4, 21] was 90 and the “Cocklebur plant response rating” value [5, 20] was 0. For the same molecule, the “Plant response rating, Cocklebur” value [5, 17] was 0, the “Plant response rating, Cocklebur” value [5, 21] was 5 and the “Plant response rating, Nightshade” value ([6]; 62 g ai/ha, scale 0 to 100) was 15. For the same molecule, the “Cupgrass, Woolly plant response rating” value [7, 20] was 65, the “Plant response rating, Cupgrass, Woolly” value [7, 16] was 75 and the “Plant response rating, Cupgrass, Woolly” value [7, 17] was 80. The “Plant response rating, Cupgrass, Woolly” value [7, 21] was 85, the “Plant response rating Sunflower” value ([8]; 62 g ai/ha, scale 0 to 100) was 20 and the “Plant response rating Sunflower” value [8, 19] was 25. For the same molecule, the “Bermudagrass plant response rating” value [9, 20] was 0, the “Plant response rating, Bermudagrass” value [9, 16] was 30 and the “Plant response rating, Bermudagrass” value [9, 17] was 50. For the same molecule, the “Plant response rating, Bermudagrass” value [9, 21] was 60, the “Bromegrass, Downy plant response rating” value [10, 20] was 0 and the “Plant response rating, Bromegrass, Downy” value [10, 16] was 0. The “Plant response rating, Bromegrass, Downy” value [10, 17] was 0 and the “Plant response rating, Bromegrass, Downy” value [10, 21] was 0.
`O=C1NCC(c2cccc(Br)c2)C1C(=O)Nc1cccc(F)c1F` (centres unmarked) [Compound 64] was tested, and the “Plant response rating, Surinam Grass” value [1, 16] was 50, the “Plant response rating, Surinam Grass” value [1, 17] was 65 and the “Plant response rating, Russian Thistle” value ([2]; 62 g ai/ha, scale 0 to 100) was 0. The “Plant response rating, Russian Thistle” value [2, 19] was 0, the “Goosegrass plant response rating” value [3, 20] was 20 and the “Plant response rating, Goosegrass” value [3, 16] was 20. The “Plant response rating, Goosegrass” value [3, 17] was 25, the “Foxtail, Green plant response rating” value [4, 20] was 70 and the “Plant response rating, Foxtail, Green” value [4, 16] was 85. For the same molecule, the “Plant response rating, Foxtail, Green” value [4, 17] was 90, the “Plant response rating, Foxtail, Green” value [4, 21] was 98 and the “Plant response rating, Cocklebur” value [5, 16] was 0. The “Plant response rating, Nightshade” value ([6]; 62 g ai/ha, scale 0 to 100) was 0, the “Plant response rating, Nightshade” value [6, 19] was 0 and the “Cupgrass, Woolly plant response rating” value [7, 20] was 30. For the same molecule, the “Plant response rating, Cupgrass, Woolly” value [7, 16] was 70, the “Plant response rating, Cupgrass, Woolly” value [7, 17] was 85 and the “Plant response rating, Cupgrass, Woolly” value [7, 21] was 90. The “Plant response rating Sunflower” value ([8]; 62 g ai/ha, scale 0 to 100) was 0, the “Plant response rating Sunflower” value [8, 19] was 0 and the “Bermudagrass plant response rating” value [9, 20] was 0. For the same molecule, the “Plant response rating, Bermudagrass” value [9, 16] was 0, the “Plant response rating, Bermudagrass” value [9, 17] was 25 and the “Plant response rating, Bermudagrass” value [9, 21] was 55. For the same molecule, the “Bromegrass, Downy plant response rating” value [10, 20] was 0, the “Plant response rating, Bromegrass, Downy” value [10, 16] was 0 and the “Plant response rating, Bromegrass, Downy” value [10, 17] was 0. For the same molecule, the “Plant response rating, Bromegrass, Downy” value [10, 21] was 50.
